Assay results reported in patent US20230075521A1, “RESVERATROL PHARMACEUTICAL COMPOSITIONS AND METHODS OF USE THEREOF” (priority 2021, published 2023).
Where “and” joins values, the source holds several entries; their conditions need not be identical. Equal entries are not always repeated. Where two headings read alike, the source gives them in different places.

How the values were obtained:
[1] = test system: Human Aβ1-42, Aβ1-40, phosphorylated tau, total tau; test: ELISA of AD pathological hallmarks in brain tissue; format: in vivo, 3×Tg-AD mouse; conditions: 50 mg/kg oral, 9 months
Experimental: At study endpoints (age 15 months for sub-chronic study, age 13 months for long-term study), mice were anaesthetized with isoflurane and blood was collected by transcardial puncture. Blood was stored on ice and then centrifuged at 10,000×g at 4° C. for 10 min to collect serum and stored at −80° C. until use. The brain was then extracted and quickly dissected on ice to collect prefrontal cortex (PFC), hippocampus, entorhinal cortex (ERC), and cerebellum, which were immediately frozen in liquid nitrogen. The samples were stored at −80° C. until processed for RNA or protein extraction. […]
Protein lysates were extracted by sonicating tissue in M-PER Mammalian Protein Extraction Reagent (Thermo Fisher Scientific) supplemented with protease inhibitor (Thermo Fisher Scientific) and phosphatase inhibitor (Thermo Fisher Scientific). Total protein was quantified using Pierce BCA Protein Assay Kit (Thermo Fisher Scientific) and read at 562 nm using EnVision (Perkin Elmer).
Human Aβ1-42, Aβ1-40, phosphorylated tau Ser 396, phosphorylated tau Thr181, and total tau were measured in brain tissue by enzyme linked immuno-sorbent assay (ELISA; Invitrogen by Thermo) and normalized to total protein. All the kits were used as per the manufacturer's instructions and measured using the EnVision® multimode plate reader (Perkin Elmer). […]

[2] = cited from earlier work
[3] = test system: AD-related gene expression; test: RT-qPCR of brain regions, long-term treatment; format: in vivo, 3×Tg-AD mouse; conditions: 3×Tg-AD mice, 50 mg/kg, 9 months
Experimental: (§1) At study endpoints (age 15 months for sub-chronic study, age 13 months for long-term study), mice were anaesthetized with isoflurane and blood was collected by transcardial puncture. Blood was stored on ice and then centrifuged at 10,000×g at 4° C. for 10 min to collect serum and stored at −80° C. until use. The brain was then extracted and quickly dissected on ice to collect prefrontal cortex (PFC), hippocampus, entorhinal cortex (ERC), and cerebellum, which were immediately frozen in liquid nitrogen. The samples were stored at −80° C. until processed for RNA or protein extraction. For each mouse, brain regions from one hemisphere were used for RNA preparation and qPCR and sections from the other hemisphere were used for protein work including ELISAs.

[4] = Rat PK study, resveratrol in plasma at 30 min; format: in vivo; conditions: male, oral, 50 mg/kg, Sprague-Dawley rats, single dose, 30 min after treatment
Experimental: For mouse PK studies, male CD-1 mice (Charles River Canada) were used. Animals were food fasted for 4 h prior to dosing and water fasted 1 h prior to dosing. […] At each time point (15 min, 30 min, 1 h, 4 h) 3 mice of each group were terminally bled via cardiac puncture under red light. Blood was collected into sodium-EDTA tubes under red light and spun at […] for 10 min at 6800×g. Plasma was collected and split into amber tubes. Both left and right brain were collected and snap-frozen in liquid nitrogen and stored at […] Drug concentrations were analyzed by liquid chromatography-mass spectrometry (LC-MS/MS) by KDM Laboratories Inc. For rat PK studies, male Sprague-Dawley rats (Charles River Canada) were used. […] Blood was collected under red light from the trunk at 30 min into K3EDTA tubes and centrifuged immediately at 4° C. for 10 min at 6800×g, and plasma collected into amber tubes. Brains were collected and snap-frozen in liquid nitrogen and stored at […] Drug concentration was analyzed by LC-MS/MS.

[5] = test system: serum cytokines and chemokines; test: Serum cytokine and chemokine levels (48-Plex ProcartaPlex, Luminex); format: in vivo, 3×Tg-AD mouse; conditions: 50 mg/kg oral, 9 months
Experimental: as §1
Human Aβ1-42, Aβ1-40, phosphorylated tau Ser 396, phosphorylated tau Thr181, and total tau were measured in brain tissue by enzyme linked immuno-sorbent assay (ELISA; Invitrogen by Thermo) and normalized to total protein. All the kits were used as per the manufacturer's instructions and measured using the EnVision® multimode plate reader (Perkin Elmer). Serum and brain tissue protein extracts were analyzed for cytokine and chemokine levels using the Immune Monitoring 48-Plex Mouse ProcartaPlex™ Panel (Invitrogen by Thermo) according to manufacturer's standard protocol and read using Luminex xMAP (multi-analyte profiling) technology.

Oc1ccc(/C=C/c2cc(O)cc(O)c2)cc1 [RSV, (trans-)resveratrol]
Phospho-tau at Ser396 in PFC, RSV-treated vs vehicle ([1]; male 3×Tg-AD mice): significantly different | Total tau in hippocampus, decrease vs vehicle ([1]; males and females analyzed together): 170.5±44.83 | Cmax ([2]; 1 g encapsulated dose (Turner et al. 2015)): 85 ng/mL | Cmax ([2]; 2.5 g micronized dose (Howells et al. 2011)): 1942 ng/mL | AUC exposure, estimated ([2]; 3,000 mg/day, healthy volunteers, published data): 2100 ng·h/mL | Adam10 expression in PFC, increase vs vehicle [3]: 20.44% | concentration at 30 min [4]: 180 ± 33.6 ng/mL | BAFF serum level, change vs vehicle ([5]; female 3×Tg-AD mice): 22.01 pg/mL | G-CSF serum level, change vs vehicle ([5]; female 3×Tg-AD mice): -0.68 pg/mL | IFNg serum level, change vs vehicle ([5]; female 3×Tg-AD mice): 1.06 pg/mL | IL-1b serum level, change vs vehicle ([5]; female 3×Tg-AD mice): 0.80 pg/mL | IL-2RA serum level, change vs vehicle ([5]; female 3×Tg-AD mice): -71.13 pg/mL | IL-3 serum level, change vs vehicle ([5]; female 3×Tg-AD mice): 0.15 pg/mL | IL-5 serum level, change vs vehicle ([5]; female 3×Tg-AD mice): 0.05 pg/mL | IL-6 serum level, change vs vehicle ([5]; female 3×Tg-AD mice): -10.05 pg/mL | IL-9 serum level, change vs vehicle ([5]; female 3×Tg-AD mice): 13.83 pg/mL | IL-10 serum level, change vs vehicle ([5]; female 3×Tg-AD mice): -8.54 pg/mL | IL-12p70 serum level, change vs vehicle ([5]; female 3×Tg-AD mice): 0.15 pg/mL | IL-13 serum level, change vs vehicle ([5]; female 3×Tg-AD mice): 15.44 pg/mL | IL-15/IL-15R serum level, change vs vehicle ([5]; female 3×Tg-AD mice): 0.51 pg/mL | IL-17A serum level, change vs vehicle ([5]; female 3×Tg-AD mice): -5.14 pg/mL | IL-18 serum level, change vs vehicle ([5]; female 3×Tg-AD mice): -74.10 pg/mL | IL-19 serum level, change vs vehicle ([5]; female 3×Tg-AD mice): -17.31 pg/mL | IL-22 serum level, change vs vehicle ([5]; female 3×Tg-AD mice): -2.84 pg/mL | IL-23 serum level, change vs vehicle ([5]; female 3×Tg-AD mice): 16.41 pg/mL | IL-25/IL-17 serum level, change vs vehicle ([5]; female 3×Tg-AD mice): -12.62 pg/mL | IL-27 serum level, change vs vehicle ([5]; female 3×Tg-AD mice): 0.92 pg/mL | IL-28 serum level, change vs vehicle ([5]; female 3×Tg-AD mice): 5.70 pg/mL | IL-33 serum level, change vs vehicle ([5]; female 3×Tg-AD mice): -4.36 pg/mL | IP-10 serum level, change vs vehicle ([5]; female 3×Tg-AD mice): -9.75 pg/mL | KC serum level, change vs vehicle ([5]; female 3×Tg-AD mice): -41.09 pg/mL | LIF serum level, change vs vehicle ([5]; female 3×Tg-AD mice): -1.86 pg/mL | LIX serum level, change vs vehicle ([5]; female 3×Tg-AD mice): 1701.00 pg/mL | MCP-1 serum level, change vs vehicle ([5]; female 3×Tg-AD mice): -43.64 pg/mL | MCP-3 serum level, change vs vehicle ([5]; female 3×Tg-AD mice): -212.20 pg/mL | MIP-1a serum level, change vs vehicle ([5]; female 3×Tg-AD mice): 3.71 pg/mL | MIP-1b serum level, change vs vehicle ([5]; female 3×Tg-AD mice): 0.17 pg/mL | MIP-2 serum level, change vs vehicle ([5]; female 3×Tg-AD mice): -7.86 pg/mL | RANTES serum level, change vs vehicle ([5]; female 3×Tg-AD mice): -9.09 pg/mL | TNFa serum level, change vs vehicle ([5]; female 3×Tg-AD mice): -2.67 pg/mL | sRANKL serum level, change vs vehicle ([5]; female 3×Tg-AD mice): -0.58 pg/mL | Eotaxin serum level, change vs vehicle ([5]; female 3×Tg-AD mice, 50 mg/kg): -3162 ± 1165 pg/mL and -3162.00 pg/mL | Leptin serum level, change vs vehicle ([5]; female 3×Tg-AD mice, 50 mg/kg): -33707 ± 9226 pg/mL and -33707.0 pg/mL | BAFF serum level, change vs vehicle ([5]; male 3×Tg-AD mice): -44.06 pg/mL | Eotaxin serum level, change vs vehicle ([5]; male 3×Tg-AD mice): 943.10 pg/mL | G-CSF serum level, change vs vehicle ([5]; male 3×Tg-AD mice): -5.14 pg/mL | IFNg serum level, change vs vehicle ([5]; male 3×Tg-AD mice): -0.66 pg/mL | IL-1b serum level, change vs vehicle ([5]; male 3×Tg-AD mice): -5.86 pg/mL | IL-2RA serum level, change vs vehicle ([5]; male 3×Tg-AD mice): -21.16 pg/mL | IL-5 serum level, change vs vehicle ([5]; male 3×Tg-AD mice): 8.72 pg/mL | IL-6 serum level, change vs vehicle ([5]; male 3×Tg-AD mice): -60.32 pg/mL | IL-9 serum level, change vs vehicle ([5]; male 3×Tg-AD mice): -9.66 pg/mL | IL-10 serum level, change vs vehicle ([5]; male 3×Tg-AD mice): 2.25 pg/mL | IL-12p70 serum level, change vs vehicle ([5]; male 3×Tg-AD mice): -13.72 pg/mL | IL-13 serum level, change vs vehicle ([5]; male 3×Tg-AD mice): -72.28 pg/mL | IL-15/IL-15R serum level, change vs vehicle ([5]; male 3×Tg-AD mice): -11.93 pg/mL | IL-17A serum level, change vs vehicle ([5]; male 3×Tg-AD mice): -6.64 pg/mL | IL-18 serum level, change vs vehicle ([5]; male 3×Tg-AD mice): -415.10 pg/mL | IL-19 serum level, change vs vehicle ([5]; male 3×Tg-AD mice): -23.06 pg/mL | IL-23 serum level, change vs vehicle ([5]; male 3×Tg-AD mice): -12.74 pg/mL | IL-25/IL-17 serum level, change vs vehicle ([5]; male 3×Tg-AD mice): -235.80 pg/mL | IL-28 serum level, change vs vehicle ([5]; male 3×Tg-AD mice): -44.41 pg/mL | IL-33 serum level, change vs vehicle ([5]; male 3×Tg-AD mice): 107.60 pg/mL | IP-10 serum level, change vs vehicle ([5]; male 3×Tg-AD mice): -47.95 pg/mL | KC serum level, change vs vehicle ([5]; male 3×Tg-AD mice): -90.17 pg/mL | LIF serum level, change vs vehicle ([5]; male 3×Tg-AD mice): -8.06 pg/mL | LIX serum level, change vs vehicle ([5]; male 3×Tg-AD mice): -6715.00 pg/mL | Leptin serum level, change vs vehicle ([5]; male 3×Tg-AD mice): -1768.00 pg/mL | MIP-1a serum level, change vs vehicle ([5]; male 3×Tg-AD mice): 4.01 pg/mL | MIP-1b serum level, change vs vehicle ([5]; male 3×Tg-AD mice): -6.40 pg/mL | RANTES serum level, change vs vehicle ([5]; male 3×Tg-AD mice): -24.75 pg/mL | TNFa serum level, change vs vehicle ([5]; male 3×Tg-AD mice): -0.08 pg/mL | VEGF-A serum level, change vs vehicle ([5]; male 3×Tg-AD mice): -17.68 pg/mL | sRANKL serum level, change vs vehicle ([5]; male 3×Tg-AD mice): 4.06 pg/mL | IL-3 serum level, change vs vehicle ([5]; male 3×Tg-AD mice, 50 mg/kg): -1.53 ± 0.26 pg/mL and -1.53 pg/mL | IL-22 serum level, change vs vehicle ([5]; male 3×Tg-AD mice, 50 mg/kg): -23.37 ± 5.2 pg/mL and -23.37 pg/mL | MIP-2 serum level, change vs vehicle ([5]; male 3×Tg-AD mice, 50 mg/kg): -16.16 ± 5.95 pg/mL and -16.16 pg/mL
